Laboratory results from US20060029989A1, “Targeting cells having Mad2 mutation for treatment and/or prevention of disease” (Regents of the University of California, priority 1999, published 2006).

Experiments:
glioblastoma cells [1] = assay: tumorigenicity of treated tumor cells in athymic mice; format: in vivo
[2] = test system: established yeast models (mutated MAD1/MAD2 and secondary genes); assay: yeast-based drug screening assay (control system showing lethality versus test system with drug added); format: cell-based; settings: among tested compounds; pharmaceutically acceptable concentrations
Procedure: In essence assay consists of control system in which one observes lethality and test system to which a drug is added and its effect is evaluated based on difference between control and test system. If drug enhances lethality or reverses it this drug is considered as a candidate drug that may be specific in the biochemical pathway controlled by primary and secondary genes.

glioblastoma cells [3] = assay: growth, replication and phenotype of glioblastoma cells under continuous drug treatment; format: cell-based, human

Compound: O=C([O-])CCCc1ccccc1.[Na+] [phenylbutyrate, 4-phenylbutyrtic acid sodium salt]
- tumorigenicity in athymic mice (glioblastoma cells [1]): reduced tumorigenicity
- activity in yeast-based screening [2]: active at pharmaceutically acceptable concentrations
- inhibition of growth (glioblastoma cells [3]; 4 mM, after 4-6 days of continuous treatment, glioblastoma cells): approximately 50%
- tumor cell replication (glioblastoma cells [3]; glioblastoma cells, phenylacetate metabolites compared): inhibited tumor cell replication
- cell maturation and phenotype (cytoskeletal intermediate filaments, anchorage-independence) (glioblastoma cells [3]; tumor cells): promoted cell maturation and reversion to a nonmalignant phenotype
